Reference: patent publication US20050186274A1, “Multilayer tablet” (Boehringer Ingelheim International GmbH, priority 2004, published 2005)

Tests used:
[1] = Dissolution rate of HCTZ from tablet matrix; type: physicochemical; details: from a dissolving matrix as compared with dissolution from a disintegrating tablet
[2] = physiological pH range of the gastrointestinal tract, pH 1 to 7; free acid form; cited from earlier work

Row | Structure (SMILES) | dissolution rate of HCTZ [1] | solubility in aqueous systems [2]
1 | NS(=O)(=O)c1cc2c(cc1Cl)NCNS2(=O)=O [HCTZ, 6-chloro-3,4-dihydro-2H-1,2,4-benzothiadiazine-7-sulfonamide-1,1-dioxide] | reduced dissolution rate | –
2 | CCCc1nc2c(C)cc(-c3nc4ccccc4n3C)cc2n1Cc1ccc(-c2ccccc2C(=O)O)cc1 [Telmisartan, 4′-[2-n-propyl-4-methyl-6-(1-methylbenzimidazol-2-yl)-benzimidazol-1-ylmethyl]-biphenyl-2-carboxylic acid] | – | very poor solubility
